Assay results: PMC10470491, “Modulation of the functional interfaces between retroviral intasomes and the human nucleosome” (mBio, 2023)
“Also recorded” adds a separate entry of the source. *1 amine or outer side, *2 acyl side, *3 side chain or, on linkers, in order; H or OH if unused. Where a SMILES comes first, the peptide text is derived from it. Bridges are numbered along the chain shown (N, C = ends). Roman numbers before positions name the chains, in order. [ ]: non-standard residue; d: D form. Actinocin(9to1) = Cc1c2oc3c(C)ccc(C(=O)[*:1])c3nc-2c(C(=O)[*:2])c(N)c1=O; NMeV = CN[C@H](C(=O)O)C(C)C; Sar = CNCC(=O)O

Legend:
PFV intasome = PFV intasome (Human spumaretrovirus, UniProt P14350); assay: biochemical; assay type: biochemical, prototype foamy virus (PFV); set-up: Briefly, PFV IN and its cognate vDNA were mixed, and assembled intasomes were purified by size exclusion chromatography; octamers produced in E. coli; conditions: 30 nM FITC PFV intasome, MN, drugs 0–25 µM
Description: Integration assays using purified assembled intasomes were performed as followed: either 100 ng of naked DNA or 100 ng of DNA assembled on 100 ng of histone octamers (24 nM final concentration) was incubated with 30 nM final concentration of purified intasome in 100 mM NaCl, 20 mM BTP pH 7, 12.5 mM MgSO4 (for PFV intasome), or in 20 mM HEPES pH 7, 7.5% DMSO, 8% PEG, 10 mM MgCl2, 20 µM ZnCl2, 100 mM NaCl, 5 mM DTT final concentration (for HIV-1 intasome) in a final volume of 40 µL. The mix was then incubated at 37°C for 15 min and 1 h, respectively. Then, reaction was stopped by the addition of 5.5 µL of a mix containing 5% SDS and 0.25 M EDTA and deproteinized with proteinase K (Promega) for 1 h at 37°C. Nucleic acids were then precipitated with 150 µL of ethanol overnight at −20°C. Samples were then spun at top speed for 1 h at 4°C, and the pellets were dried and then resuspended with DNA loading buffer. Integration products were separated on an 8% native polyacrylamide gel.

mononucleosome (MN) = assay: histone eviction assay (EMSA / SDS-PAGE); assay type: biochemical, human; conditions: 10 µM or increasing concentrations
[1] = test system: PFV intasome/nucleosome complex; assay: AlphaLISA PFV intasome/nucleosome interaction assay; assay type: binding, prototype foamy virus (PFV); human mononucleosome; conditions: for IC50: intasome/nucleosome AS assay, Fig. 3E; for selection as intasome/nucleosome modulator in the OncoSET screen: 25 µM
Description: AlphaLISA is a technology particularly suitable for bimolecular inhibitor screening assays using protein-protein interactions with purified recombinant proteins. The AlphaLISA assay development was performed in 96-well 12 area Alphaplate (reference 6052340, PerkinElmer, Waltham, MA, USA) with a final reaction volume of 40 µL. Cross-titration experiments of biotinylated MN (0–50 nM) against DIG-intasome (0–100 nM) were carried out to establish optimal assay concentrations for the binding assay. Ten microliters of each protein were diluted in the binding buffer 50 mM BisTris-propane pH 7, 100 mM NaCl, 0.1% (v/v) Tween-20, 0.1% (w/v) BSA, and 1 mM dithiothreitol. The plate was incubated at RT for 2 h in rotation. Ten microliters of anti-DIG acceptor beads (PerkinElmer, reference AL113) were then added, and after 1 h of incubation at RT with rotation, 10 µL of streptavidin […] (Perkin Elmer, reference 6760002) was mixed to the wells. This established a final concentration of 20 µg/mL for each bead. The plate was then incubated for 1 h at RT in the dark before the AlphaLISA signal was detected using an EnSpire Multimode Plate Reader (PerkinElmer). Negative control with binding buffer or only with one of the complexes was used to control the assay quality. Data were analyzed with GraphPad Prism 5.01 software. To evaluate tolerance for DMSO, the assay was performed as described above with an addition of 0.15–20% (v/v) of DMSO during the binding step. For the competition experiment, increasing concentrations of untagged intasome were titrated out in the 1-nM DIG-intasome/biotinylated nucleosome interaction assay.
For the AlphaLISA screening assay with the NIH OncoSET library, the binding conditions were optimized for use in 384-well plate (Optiplate, reference 6007290, PerkinElmer) with the same concentrations for complexes and beads in a final reaction volume of 20.5 µL (2.5% DMSO final concentration). The screening was first carried out with 25 µM of each compound pre-incubated for 1 h with 1 nM intasome/nucleosome complexes. Compounds were selected as inducing at least 50% decrease of the AlphaLISA signal control condition, and their inhibitory effect was further tested using dose-response curves. For compounds validation, counter select assay was performed using a short DNA fragment carrying a biotin and a DIG tag on each side. The AlphaLISA signal was monitoring using increasing concentrations of the double-tagged DNA, and the selected compounds were tested in optimized conditions at 10 µM. Any compound that causes decreased signal means that it interferes with AlphaLISA readout, and therefore, it is not relevant to this assay.

[2] = test system: HIV-1 intasome (vDNA•IN•LEDGF/p75); assay: in vitro HIV-1 concerted integration onto mononucleosome; assay type: biochemical; conditions: MN
[3] = OncoSET screen, 25 µM drug, 1 nM of each partner

Compound | inhibition of PFV integration into MNs (PFV intasome) | histone eviction / MN dissociation (mononucleosome (MN)) | decrease in the AS signal [1, 3] | other results
COc1cccc2c1C(=O)c1c(O)c3c(c(O)c1C2=O)C[C@@](O)(C(C)=O)C[C@@H]3O[C@H]1C[C@H](N)[C@H](O)[C@H](C)O1 [Daunorubicin, daunorubicin] | able to inhibit PFV integration into MNs | strong displacement of histones from the MN | at least 50% | IC50 ([1]; increasing drug concentrations): 3240 ± 18 nM; effect on the intasome/nucleosome AS signal ([1]; retest at 10 µM, MN): strong inhibitory effect
COc1cccc2c1C(=O)c1c(O)c3c(c(O)c1C2=O)C[C@@](O)(C(=O)CO)C[C@@H]3O [Doxorubicinone, doxorubicinone] | inefficient in inhibiting the in vitro integration | could not dissociate the MN | – | inhibition of in vitro HIV-1 integration [2]: inefficient
CC(=O)[C@]1(O)Cc2c(O)c3c(c(O)c2[C@@H](O[C@H]2C[C@H](N)[C@H](O)[C@H](C)O2)C1)C(=O)c1ccccc1C3=O [Idarubicin, idarubicin] | able to inhibit PFV integration into MNs | strong displacement of histones from the MN | at least 50% | IC50 ([1]; increasing drug concentrations): 450 ± 22 nM; effect on the intasome/nucleosome AS signal ([1]; retest at 10 µM, MN): strong inhibitory effect
C=CC(=O)Nc1cc(Nc2nccc(-c3cn(C)c4ccccc34)n2)c(OC)cc1N(C)CCN(C)C [Osimertinib, osimertinib] | – | – | at least 50% | inhibition of intasome/nucleosome association in AS ([1]; increasing drug concentrations): no inhibition in the concentration range used; decrease in the AS signal ([1]; retest at 10 µM, MN): 30–40%
COc1cccc2c1C(=O)c1c(O)c3c(c(O)c1C2=O)C[C@@](O)(C(=O)CO)C[C@@H]3O[C@H]1C[C@H](N)[C@H](O[C@@H]2CCCCO2)[C@H](C)O1 [Pirarubicin, pirarubicin] | able to inhibit PFV integration into MNs | full shift of the nucleosomal DNA in addition to a strong MN dissociation | at least 50% | IC50 ([1]; increasing drug concentrations): 630 ± 20 nM; effect on the intasome/nucleosome AS signal ([1]; retest at 10 µM, MN): strong inhibitory effect
Cc1c2oc3c(C)ccc(C(=O)N[C@@H]4C(=O)N[C@H](C(C)C)C(=O)N5CCC[C@H]5C(=O)N(C)CC(=O)N(C)[C@@H](C(C)C)C(=O)O[C@@H]4C)c3nc-2c(C(=O)N[C@@H]2C(=O)N[C@H](C(C)C)C(=O)N3CCC[C@H]3C(=O)N(C)CC(=O)N(C)[C@@H](C(C)C)C(=O)O[C@@H]2C)c(N)c1=O [actinomycin D] (I: T[dV]P[Sar][NMeV] / II: T[dV]P[Sar][NMeV]; ester I:1-I:C, II:1-II:C; linker I:N-II:N via Actinocin(9to1)) | – | – | – | selection as intasome/nucleosome modulator in the OncoSET screen ([1]; OncoSET screen): lack of effect
N.N.[Cl][Pt][Cl] [cisplatin] | only a slight inhibition of integration into nucleosome | – | – | –
COc1cccc2c1C(=O)c1c(O)c3c(c(O)c1C2=O)C[C@@](O)(C(=O)CO)C[C@@H]3O[C@H]1C[C@H](N)[C@@H](O)[C@H](C)O1 [epirubicin] | – | – | – | selection as intasome/nucleosome modulator in the OncoSET screen ([1]; OncoSET screen): not selected as an intasome/nucleosome modulator; also recorded: inefficient in inhibiting the intasome/nucleosome complex
O=C1CCC(N2C(=O)c3ccccc3C2=O)C(=O)N1 (stereo not drawn) [thalidomide] | did not show any effect | – | – | –
CC[C@@]1(O)C(=O)OCc2c1cc1n(c2=O)Cc2cc3c(CN(C)C)c(O)ccc3nc2-1 [topotecan] | did not show any effect | – | – | –
CCCCC(=O)OCC(=O)[C@]1(O)Cc2c(O)c3c(c(O)c2[C@@H](O[C@H]2C[C@H](NC(=O)C(F)(F)F)[C@H](O)[C@H](C)O2)C1)C(=O)c1c(OC)cccc1C3=O [valrubicin] | – | – | – | selection as intasome/nucleosome modulator in the OncoSET screen ([1]; OncoSET screen): inefficiency
